SMILES strings stand for the structures.

For assay [1], the system named is healthy females. The experiment in a line: Neuropsychological tests, proof of concept study: conclusions per neuropsychological domain. The settings on record: for Effect regarding executive functioning: 1 subject (trail making B), an indication; for Effect regarding information processing speed: both subjects, multiple indications. The format is in vivo, human. As for the experimental part: (§1) 2 healthy females performed a number of neuropsychological tests at baseline, after taking 40 mg/day of tamoxifen for 4 consecutive days, and after taking 40 mg/day of tamoxifen combined with 0.5 mg/day of sublingual testosterone for 4 consecutive days, to investigate any beneficial effects of sublingual testosterone in women taking a selective estrogen-receptor modulator (SERM).
In this proof of concept study, 2 healthy females performed a number of neuropsychological tests to investigate any beneficial effects of sublingual testosterone in women taking a SERM. The following neuropsychological domains were investigated (tasks are in brackets, see below for more information): • Information processing speed (Big/Little Circle, Choice Reaction Time, Match to Sample Visual Search, Trail making task A, 5-Choice Reaction Time) • Executive functioning (Intra-Extra Dimensional Set Shift, Trail making task B) • Reaction speed (Single Choice Reaction Time) • Working memory (Rapid Visual Information Processing) • Verbal memory (15-words task)
If tamoxifen in these women were to have detrimental effects on their cognitive functioning, a decrease in speed and/or accuracy on either of these tasks was expected.

Assay [2] has as its system healthy females. The assay is described as follows: 15 Words Test. The format is in vivo, human. The settings on record: after 4 daily doses; for 15 words direct / 15 words recall: number of recalled words; for 15 words direct: total in 5 consecutive trials; for 15 words recognition: number of words. As for the experimental part:
as §1
The 15 Words Test (15WT) is developed to investigate episodic memory problems in patients with brain disorders. It is the Dutch version of the Auditory Verbal Learning Test (REF?). This test consists of 15 words, which have to be learned during five trials. After every trial the respondent is asked to recall as many words as possible. After a distraction period of 20 minutes, the respondent is, again asked to name the words they have learned before.

Assay [3] concerns healthy females. The assay is described as follows: Rapid Visual Information Processing (RVP). Type of assay: in vivo, human. Particulars: 2 healthy females; after 4 daily doses versus baseline.
Text: A white box appears in the centre of the computer screen, inside which digits, from 2 to 9, appear in a pseudo-random order, at the rate of 100 digits per minute.
The nine RVP outcome measures cover latency, probabilities and sensitivity.
The subject of assay [4] is healthy females. Particulars: 2 healthy females; after 4 daily doses versus baseline.
Text: Intra-Extra Dimensional Set Shift (IED)
Two artificial dimensions are used in the test: • color-filled shapes • white lines
Simple stimuli are made up of just one of these dimensions, whereas compound stimuli are made up of both, namely white lines overlying colour-filled shapes. The participant starts by seeing two simple colour-filled shapes, and must learn which one is correct by touching it.
Feedback teaches the participant which stimulus is correct, and after six correct responses, the stimuli and/or rules are changed. These shifts are initially intra-dimensional (e.g. colour filled shapes remain the only relevant dimension), then later extra-dimensional (white lines become the only relevant dimension). Participants progress through the test by satisfying a set criterion of learning at each stage (six consecutive correct responses). If at any stage the participant fails to reach this criterion after 50 trials, the test terminates. […]

`C[C@]12CC[C@H]3[C@@H](CCC4=CC(=O)CC[C@@]43C)[C@@H]1CC[C@@H]2O` [testosterone]: in assay [1] (1 subject (15 words recall)), the “Effect regarding verbal memory” value is given as “positive effect”. In assay [1], the “Effect regarding executive functioning” value was “positive effects” and the “Effect regarding information processing speed” value is recorded as “positive effects”.

In assay [2] (Subject 1), `CC/C(=C(\c1ccccc1)c1ccc(OCCN(C)C)cc1)c1ccccc1` [TAMOXIFEN, (Z)-2-[4-(1,2-diphenylbut-1-enyl)phenoxy]-N,N-dimethyl-ethanamine] registered a 15 words direct of 51, a 15 words recall of 6 and a 15 words recognition of 27. In assay [2] (Subject 2), this molecule had a 15 words direct of 43, a 15 words recall of 9 and a 15 words recognition of 28. Further, in assay [3], the RVP task result is listed as “no effects”. Moreover, in assay [1], the “Effect regarding executive functioning” value was “deteriorating effects” and the “Effect regarding information processing speed” value was “deteriorating effects”. The IED task result in assay [4] is listed as “no effects”.

The record behind these values is patent publication US20160279146A1, “METHODS AND PHARMACEUTICAL FORMULATIONS FOR TREATMENT OF SELECTIVE ESTROGEN-RECEPTOR MODULATOR-INDUCED ADVERSE DRUG REACTIONS” (priority 2013, published 2016).
